Like-named read-outs stand apart in the source and are kept apart here.
How the values were obtained:
[1] = test system: expanded OPCs; assay: cells; conditions: for viability at 0.1 µM / viability at 1 µM / viability at 10 µM: Rattus norvegicus, 72 h
In short: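 Toxicity screen: compounds added at 0.1, 1 and 10 µM to PDGF-AA-expanded OPCs in 96-well plates, 3-day incubation at 37 °C, 10% CO2, then alamarBlue 1:10 for 4 h with fluorescence readout. Results set screening doses of 10/2, 2/0.4 or 0.4/0.08 µM.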

[2] = test system: acutely dissociated and purified rat OPCs; assay: Acute OL differentiation assay (MBP expression/cell, immunofluorescent image quantification); format: cell-based
In short: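 This acute differentiation assay used purified rat OPCs from postnatal day 6–7 pups, seeded into PDL/laminin-coated 96-well plates in differentiation medium lacking PDGF and FGF. Compounds were applied in quadruplicate after a 1–2 h preincubation at 37 °C, 10 % CO2, with 0.1 % DMSO negative and 40 ng/ml T3 positive controls in eight wells. After fixation on DIV4, anti-MBP immunofluorescence images yielded MBP expression/cell.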

[3] = read-out: 0.1 µM (% DMSO), alamarBlue viability of expanded OPCs, compound at 0.1 µM, sheet All Tox data
[4] = read-out: 1 µM (% DMSO), alamarBlue viability of expanded OPCs, compound at 1 µM, sheet All Tox data
[5] = read-out: 10 µM (% DMSO), alamarBlue viability of expanded OPCs, compound at 10 µM, sheet All Tox data
[6] = alamarBlue viability of expanded OPCs, compound at 0.1 µM, relative to DMSO control
[7] = alamarBlue viability of expanded OPCs, compound at 1 µM, relative to DMSO control
[8] = alamarBlue viability of expanded OPCs, compound at 10 µM, relative to DMSO control
[9] = Rattus norvegicus, 2 uM test compound; relative to quetiapine; sheet "All OLga data"; read-out: OL differentiation, 2 uM (% Quet)
[10] = Rattus norvegicus, test compound at 0.4 uM; MBP expression relative to quetiapine; NCC library screen, sheet "All OLga data"; read-out: 0.4 uM (% Quet)
[11] = Rattus norvegicus, test compound at 2 uM; MBP expression relative to quetiapine; NCC library screen, sheet "All OLga data"; read-out: 2 uM (% Quet)
[12] = Rattus norvegicus, test compound at 10 uM; MBP expression relative to quetiapine; NCC library screen, sheet "All OLga data"; read-out: 10 uM (% Quet)
[13] = Rattus norvegicus, 10 uM test compound; relative to quetiapine; sheet "All OLga data"; read-out: OL differentiation, 10 uM (% Quet)
[14] = read-out: 0.1 µM (% DMSO), alamarBlue viability, NCC library compound at 0.1 µM, sheet "All Tox data"
[15] = read-out: 1 µM (% DMSO), alamarBlue viability, NCC library compound at 1 µM, sheet "All Tox data"
[16] = read-out: 10 µM (% DMSO), alamarBlue viability, NCC library compound at 10 µM, sheet "All Tox data"
[17] = Rattus norvegicus, test compound at 2 uM; NCC library screen, sheet "All OLga data"; relative to quetiapine; read-out: 2 uM (% Quet)
[18] = Rattus norvegicus, test compound at 10 uM; NCC library screen, sheet "All OLga data"; relative to quetiapine; read-out: 10 uM (% Quet)
[19] = Rattus norvegicus, test compound at 0.4 uM; NCC library screen, sheet "All OLga data"; relative to quetiapine; read-out: 0.4 uM (% Quet)

Structure (SMILES)	viability at 0.1 µM [1, 3] [%]	viability at 1 µM [1, 4] [%]	viability at 10 µM [1, 5] [%]	0.1 µM (% DMSO) [1, 6] [% DMSO]	1 µM (% DMSO) [1, 7] [% DMSO]	10 µM (% DMSO) [1, 8] [% DMSO]	activation at 2 µM [2, 9] [%]	activation at 10 µM [2, 13] [%]	viability at 0.1 µM [1, 14] [%]	viability at 1 µM [1, 15] [%]	viability at 10 µM [1, 16] [%]	other results
CO[C@H]1/C=C/O[C@@]2(C)Oc3c(C)c(O)c4c(c3C2=O)C2=NC3(CCN(CC(C)C)CC3)NC2=C(NC(=O)/C(C)=C\C=C\[C@H](C)[C@H](O)[C@@H](C)[C@@H](O)[C@@H](C)[C@H](OC(C)=O)[C@@H]1C)C4=O [Rifabutin]	86.7	79.7	37	95.3	77.1	32.3	-31.8	–	–	–	–	activation at 0.4 µM ([2]; Rattus norvegicus, 0.4 uM test compound; relative to quetiapine; sheet "All OLga data"; read-out: OL differentiation, 0.4 uM (% Quet)): 16.3%; activation at 0.4 µM [2, 10]: -0.04%; activation at 2 µM [2, 11]: -15.6%
CC(C)c1cccc(C(C)C)c1O [Propofol]	–	–	–	–	–	–	–	–	–	–	–	0.1 µM (% DMSO) ([1]; rat): 93.1 % DMSO; 1 µM (% DMSO) ([1]; rat): 85.9 % DMSO; 10 µM (% DMSO) ([1]; rat): 87.2 % DMSO; activation at 2 µM ([2]; Rattus norvegicus, read-out: 2 uM (% Quet)): -0.9%; activation at 10 µM ([2]; Rattus norvegicus, read-out: 10 uM (% Quet)): 0.36%
C[C@@](Cc1ccc(O)c(O)c1)(NN)C(=O)O [Carbidopa]	–	–	–	108.9	101.2	82.3	–	–	–	–	–	activation at 2 µM [2, 11]: -35.6%; activation at 10 µM [2, 12]: -121%
Cc1ncc([N+](=O)[O-])n1CC(C)O (stereo not drawn) [Secnidazole]	97.5	99.6	110	–	–	–	8.1	2.5	–	–	–	–
C[N+]1(CCC(C(N)=O)(c2ccccc2)c2ccccc2)CCCCC1 [Fenpiverinium]	93.3	96.9	101	–	–	–	-23.8	-19.5	–	–	–	–
C[C@H]1O[C@H](O[C@H]2[C@H](O)[C@@H](O)[C@@H](O[C@H]3[C@H](O)[C@@H](O)C(O)O[C@@H]3CO)O[C@@H]2CO)[C@H](O)[C@@H](O)[C@@H]1N[C@H]1C=C(CO)[C@@H](O)[C@H](O)[C@H]1O (stereo partly drawn) [Acarbose]	88.8	92	93.2	–	–	–	17.5	-6.6	–	–	–	–
CCCCNC(=O)NS(=O)(=O)c1ccc(C)cc1 [Tolbutamide]	–	–	–	–	–	–	–	–	105	107	117	activation at 2 µM [2, 17]: -1.3%; activation at 10 µM [2, 18]: 20.2%
COc1cc(NC(C)CCCN)c2ncccc2c1 (stereo not drawn) [Primaquine]	–	–	–	90.1	66.2	32.4	–	–	–	–	–	activation at 0.4 µM ([2]; Rattus norvegicus; read-out: 0.4 uM (% Quet)): -10%; activation at 2 µM ([2]; Rattus norvegicus; read-out: 2 uM (% Quet)): -37.5%
C[C@]12Cc3c[nH]nc3C[C@@H]1CC[C@@H]1[C@@H]2CC[C@@]2(C)[C@H]1CC[C@]2(C)O [Stanozolol]	–	–	–	–	–	–	–	–	91.1	92.6	61.7	activation at 0.4 µM [2, 19]: 6.5%; activation at 2 µM [2, 17]: 42.2%
COCCOC(=O)C1=C(C)NC(C)=C(C(=O)OC(C)C)C1c1cccc([N+](=O)[O-])c1 (stereo not drawn) [Nimodipine]	–	–	–	–	–	–	–	–	88	87.4	54.5	activation at 0.4 µM [2, 19]: -13.1%; activation at 2 µM [2, 17]: 4.8%
O=c1[nH]cnc2c1ncn2[C@H]1CC[C@@H](CO)O1 [2',3'-Dideoxyinosine]	88.6	88.2	86.2	–	–	–	10	-0.07	–	–	–	–
NS(=O)(=O)c1cc(C2(O)NC(=O)c3ccccc32)ccc1Cl (stereo not drawn) [Chlorthalidone]	–	–	–	92.5	95.8	81.7	–	–	–	–	–	activation at 2 µM [2, 11]: -5.8%; activation at 10 µM [2, 12]: -2%
CC(N)C12CC3CC(CC(C3)C1)C2 (stereo not drawn) [Rimantadine]	–	–	–	89.9	83.2	32.9	–	–	–	–	–	activation at 0.4 µM [2, 10]: -17.2%; activation at 2 µM [2, 11]: -11.2%
CN(C)CCc1c[nH]c2ccc(Cn3cncn3)cc12 [Rizatriptan]	110	94.8	86.3	–	–	–	-2.6	-0.44	–	–	–	–
CC(=O)[C@@]1(O)CC[C@H]2[C@@H]3C[C@H](C)C4=CC(=O)C=C[C@]4(C)[C@@]3(F)[C@@H](O)C[C@@]21C [Fluorometholone]	–	–	–	112.5	98.3	86.2	–	–	–	–	–	activation at 2 µM [2, 11]: 9.3%; activation at 10 µM [2, 12]: -24.3%
CN(C)[C@@H]1C(O)=C(C(N)=O)C(=O)[C@@]2(O)C(O)=C3C(=O)c4c(O)cccc4C[C@H]3C[C@@H]12 [Sancycline]	–	–	–	88.7	89.0	83.0	–	–	–	–	–	activation at 2 µM [2, 17]: 1.8%; activation at 10 µM [2, 18]: 27.4%
c1ccc2c(c1)Nc1ccccc1S2 [Phenothiazine]	–	–	–	–	–	–	–	–	82.8	85.1	51.9	activation at 0.4 µM [2, 19]: 4%; activation at 2 µM [2, 17]: -12.1%
NC1CCN(c2nc3c(cc2F)c(=O)c(C(=O)O)cn3-c2ccc(F)cc2F)C1 (stereo not drawn) [Tosufloxacin]	95.4	104	92.2	–	–	–	-17.9	-6.5	–	–	–	–
CNC[C@H](O)c1ccc(O)c(O)c1 [Epinephrine]	–	–	–	101.9	92.7	81.7	–	–	–	–	–	activation at 2 µM [2, 11]: -7.6%; activation at 10 µM [2, 12]: -15%
NCCc1ccc(O)c(O)c1 [Dopamine]	–	–	–	–	–	–	–	–	87	74.7	51.7	activation at 0.4 µM [2, 19]: 3.4%; activation at 2 µM [2, 17]: -24.9%
CCCCC1=NC2(CCCC2)C(=O)N1Cc1ccc(-c2ccccc2-c2nnn[nH]2)cc1 [Irbesartan]	–	–	–	–	–	–	0.6	-16.7	88.9	92.8	89.7	–
C#C[C@]1(O)CC[C@H]2[C@@H]3CCc4cc(OC)ccc4[C@H]3CC[C@@]21C [Mestranol]	–	–	–	–	–	–	92.5	-6.7	102	103	114	–
CN1C(=O)COc2c(C(=O)NC3CN4CCC3CC4)cc(Cl)cc21 (stereo not drawn) [Azasetron]	–	–	–	–	–	–	-8.9	-16.8	94.2	80.9	76.8	–
